Earlier results on ten compounds are cited in patent publication US9592699B2, “Dampening fluid for digital lithographic printing” (Xerox Corporation, priority 2011, dated 2017).

Experiment in series [1]: not given
This is another data set of the same source.

Experiment in series [2]: not given
This is another data set of the same source.

Experiment in series [3]: not given
This is another data set of the same source.

Experiment in series [4]: not given
This is another data set of the same source.

Take `COC(F)(C(F)(F)C(F)(F)F)C(F)(C(F)(F)F)C(F)(F)F` (centres unmarked) [(I-a), 1,1,1,2,2,3,4,5,5,5-decafluoro-3-methoxy-4-(trifluoromethyl)pentane]: the “Vapor Pressure at 25° C.” value is 44.9 mmHg. Besides, the “Heat of Vaporization at boiling point” value in series [1] is given as 101.7 kJ/kg. Further, in series [2], the “Surface Tension at 25° C.” value is recorded as 15 dynes/cm. For the same compound, the “Kinematic Viscosity at 25° C.” value in series [3] is 0.71 cSt.

Regarding `CCOC(F)(C(F)(F)C(F)(F)C(F)(F)F)C(F)(C(F)(F)F)C(F)(F)F` (centres unmarked) [(I-b), 3-ethoxy-1,1,1,2,3,4,4,5,5,6,6,6-dodecafluoro-2-(trifluoromethyl)hexane], the “Heat of Vaporization at boiling point” value in series [1] was 88.5 kJ/kg. Further, the “Surface Tension at 25° C.” value in series [2] is on record as 16.2 dynes/cm. The “Kinematic Viscosity at 25° C.” value in series [3] is given as 0.77 cSt.

With `CC(OC(F)(F)C(F)C(F)(F)F)C(F)(F)C(F)C(F)(F)F` (centres unmarked) [(I-c), 1,1,1,2,3,3-Hexafluoro-4-(1,1,2,3,3,3-hexafluoropropoxy)pentane], the “Heat of Vaporization at boiling point” value in series [1] is recorded as 115.6 kJ/kg. Moreover, the “Surface Tension at 25° C.” value in series [2] is listed as 17.7 dynes/cm. Further, the “Kinematic Viscosity at 25° C.” value in series [3] was 1.07 cSt. Also, in series [4], the “Solubility in Water” value is less than 10 ppm.

Consider `COC(F)(F)C(F)(F)C(F)(F)F` [(I-f), 1-methoxyheptafluoropropane], for which the “Vapor Pressure at 25° C.” value is 484.5 mmHg. Also, the “Heat of Vaporization at boiling point” value in series [1] was 142 kJ/kg. The “Surface Tension at 25° C.” value in series [2] is reported as 12.4 dynes/cm. For the same compound, the “Kinematic Viscosity at 25° C.” value in series [3] is recorded as 0.32 cSt.

As for `C[Si](C)(C)O[Si](C)(C)C` [(II-a), hexamethyldisiloxane], the “Vapor Pressure at 25° C.” value is given as 35 mmHg. Besides, the “Heat of Vaporization at boiling point” value in series [1] was 200.8 kJ/kg. The “Surface Tension at 25° C.” value in series [2] is reported as 15.9 dynes/cm. Also, in series [3], the “Kinematic Viscosity at 25° C.” value is listed as 0.65 cSt.

Turning to `C[Si](C)(C)O[Si](C)(C)O[Si](C)(C)C` [(II-b), octamethyltrisiloxane], the “Vapor Pressure at 25° C.” value is recorded as 4 mmHg. Further, the “Heat of Vaporization at boiling point” value in series [1] is on record as 158 kJ/kg. The “Surface Tension at 25° C.” value in series [2] is recorded as 17.4 dynes/cm. In addition, in series [3], the “Kinematic Viscosity at 25° C.” value is 1 cSt.

Take `C[Si]1(C)O[Si](C)(C)O[Si](C)(C)O[Si](C)(C)O1` [(III-a), octamethylcyclotetrasiloxane]: the “Vapor Pressure at 25° C.” value is 1.5 mmHg. Besides, the “Heat of Vaporization at boiling point” value in series [1] is reported as 133 kJ/kg. In addition, the “Surface Tension at 25° C.” value in series [2] was 18.4 dynes/cm. In addition, the “Kinematic Viscosity at 25° C.” value in series [3] is listed as 2.3 cSt.

As for `C[Si]1(C)O[Si](C)(C)O[Si](C)(C)O[Si](C)(C)O[Si](C)(C)O1` [(III-b), decamethylcyclopentasiloxane], the “Vapor Pressure at 25° C.” value is reported as 1 mmHg. Moreover, the “Heat of Vaporization at boiling point” value in series [1] was 157 kJ/kg. Moreover, the “Surface Tension at 25° C.” value in series [2] was 18.0 dynes/cm. In addition, in series [3], the “Kinematic Viscosity at 25° C.” value is 3.9 cSt.

In the case of `C[Si](C)(C)O[Si](C)(O[Si](C)(C)C)O[Si](C)(C)C` [(IV-a), methyltris(trimethylsiloxy)silane], the “Vapor Pressure at 25° C.” value is given as less than 10 mmHg. Also, the “Surface Tension at 25° C.” value in series [2] was 16.8 dynes/cm. Moreover, in series [3], the “Kinematic Viscosity at 25° C.” value was 1.5 cSt.

For the compound `O` [Water, reference compound], in series [2], the surface tension entry is given as “around 70 dynes/cm” and the “Surface Tension at 25° C.” value was 72 dynes/cm. In series [3] (1 mm^2/sec), the kinematic viscosity result is recorded as “about 1 centiStoke”. Moreover, the “Kinematic Viscosity at 25° C.” value in series [3] is on record as 1 cSt.
